Values joined by “and” are separate entries in the source; they are usually repeats but may differ in a detail not shown here. Equal values may be shown once. Toxic doses and inconclusive results are not listed.
Tested on: P388 leukemia ip, CD2F1 mice, survival T/C
Assay: NCI In Vivo Anticancer Drug Screen. Data for tumor model P388 Leukemia (intraperitoneal) in CD2F1 (CDF1) mice
Settings: endpoint: median survival time, higher = longer survival
Method in brief: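 Mice carrying the transplanted tumor received test compound or vehicle. Survival was recorded in each group, and the value is the treated-group measurement divided by that of the vehicle-treated control group.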

[1] = dose: 50.0 mg/kg/injection, schedule: Q01DX009 (ip), vehicle: saline with Tween-80
[2] = dose: 50.0 mg/kg/injection, schedule: Q04DX003 (ip), vehicle: saline with Tween-80
[3] = dose: 100.0 mg/kg/injection, schedule: Q04DX003 (ip), vehicle: saline with Tween-80
[4] = dose: 100.0 mg/kg/injection, schedule: Q01DX009 (ip), vehicle: saline with Tween-80
[5] = dose: 200.0 mg/kg/injection, schedule: Q01DX009 (ip), vehicle: saline with Tween-80
[6] = dose: 60.0 mg/kg/injection, schedule: Q01DX005 (ip), vehicle: Klucel (hydroxypropylcellulose) (HPC)
[7] = dose: 120.0 mg/kg/injection, schedule: Q01DX005 (ip), vehicle: Klucel (hydroxypropylcellulose) (HPC)
[8] = dose: 240.0 mg/kg/injection, schedule: Q01DX005 (ip), vehicle: Klucel (hydroxypropylcellulose) (HPC)
[9] = dose: 50.0 mg/kg/injection, schedule: Q01DX005 (ip), vehicle: Klucel (hydroxypropylcellulose) (HPC)
[10] = dose: 50.0 mg/kg/injection, schedule: Q01DX009 (ip), vehicle: Klucel (hydroxypropylcellulose) (HPC)
[11] = dose: 100.0 mg/kg/injection, schedule: Q01DX005 (ip), vehicle: Klucel (hydroxypropylcellulose) (HPC)
[12] = dose: 100.0 mg/kg/injection, schedule: Q01DX009 (ip), vehicle: Klucel (hydroxypropylcellulose) (HPC)
[13] = dose: 200.0 mg/kg/injection, schedule: Q01DX005 (ip), vehicle: Klucel (hydroxypropylcellulose) (HPC)
[14] = dose: 200.0 mg/kg/injection, schedule: Q01DX009 (ip), vehicle: Klucel (hydroxypropylcellulose) (HPC)
[15] = dose: 12.5 mg/kg/injection, schedule: Q01DX009 (ip), vehicle: saline
[16] = dose: 25.0 mg/kg/injection, schedule: Q01DX009 (ip), vehicle: saline
[17] = dose: 50.0 mg/kg/injection, schedule: Q01DX009 (ip), vehicle: saline
[18] = dose: 100.0 mg/kg/injection, schedule: Q01DX009 (ip), vehicle: saline
[19] = dose: 50.0 mg/kg/injection, schedule: Q01DX005 (ip), vehicle: saline
[20] = dose: 100.0 mg/kg/injection, schedule: Q01DX005 (ip), vehicle: saline
[21] = dose: 200.0 mg/kg/injection, schedule: Q01DX005 (ip), vehicle: saline
[22] = dose: 200.0 mg/kg/injection, schedule: Q04DX003 (ip), vehicle: saline with Tween-80

In the case of CCCN=C(N)c1ccc(NC(=O)c2ccc(C(=O)Nc3ccc(C(N)=NCCC)cc3)cc2)cc1, the T/C (dose: 6.25 mg/kg/injection, schedule: Q04DX003 (ip), vehicle: saline with Tween-80) is reported as 154 % of control, the T/C (dose: 12.5 mg/kg/injection, schedule: Q04DX003 (ip), vehicle: saline with Tween-80) is reported as 163 % of control and the T/C (dose: 25.0 mg/kg/injection, schedule: Q01DX009 (ip), vehicle: saline with Tween-80) is reported as 122 % of control. For the same molecule, the T/C (dose: 25.0 mg/kg/injection, schedule: Q04DX003 (ip), vehicle: saline with Tween-80) was 154 % of control, the T/C [1] was 90 % of control and the T/C [2] was 213 % of control. For the same molecule, the T/C [3] was 100 % of control.
With O=C(NCCCl)OCC(Cl)(Cl)Cl the T/C [1] was 91 % of control, the T/C [4] was 100 % of control and the T/C [5] was 98 % of control.
For COc1cccc2c1SCC/C2=N\OCC(O)CNC1CCCCC1 (stereo not drawn), the T/C (dose: 100.0 mg/kg/injection, schedule: Q04DX002 (ip), vehicle: Klucel (hydroxypropylcellulose) (HPC)) was 94 % of control and the T/C (dose: 200.0 mg/kg/injection, schedule: Q04DX002 (ip), vehicle: Klucel (hydroxypropylcellulose) (HPC)) was 94 % of control.
CC1(C)OC(C)(C)C(=N\O)/C1=N/N was tested, and the T/C [6] was 102 % of control, the T/C [7] was 102 % of control and the T/C [8] was 106 % of control.
In the case of CC(=O)Oc1c(C)c2c(O)c3c1C1=C(OCOC1=C(C)C3=O)C(C)=CC(C)(O)C(O)C(C)C(O)C1C(=O)OC(C(C)/C=C\C=C(C)C(=O)N2)C(C)C1O (stereo not drawn), the T/C [9] is reported as 108 % of control, the T/C [10] is reported as 99 % of control and the T/C [11] is reported as 108 % of control. The T/C [12] was 100 % of control, the T/C [13] was 108 % of control and the T/C [14] was 104 % of control. The T/C (dose: 400.0 mg/kg/injection, schedule: Q01DX009 (ip), vehicle: Klucel (hydroxypropylcellulose) (HPC)) was 103 % of control.
With CC(=O)NNC(=O)NCCCCCCNC(=O)NNC(C)=O the T/C [9] was 101 % of control, the T/C [11] was 97 % of control and the T/C [13] was 92 % of control. For the same molecule, the T/C (dose: 400.0 mg/kg/injection, schedule: Q01DX005 (ip), vehicle: Klucel (hydroxypropylcellulose) (HPC)) was 94 % of control.
For COc1ccccc1-n1c(C)nc2c(cnn2CN2CCCCC2)c1=O, the T/C [9] was 99 % of control, the T/C [11] was 115 % of control and the T/C [13] was 101 % of control.
CCCCCCCCCCCCOC(=O)c1ccc(Cl)cc1 was tested, and the T/C [1] was 87 % of control, the T/C [4] was 102 % of control and the T/C [5] was 104 % of control.
CCC1(CC)C(=O)N(C(C)=O)C2(C)C(=O)NC(=O)N2C1=O (stereo not drawn) was tested, and the T/C (dose: 100.0 mg/kg/injection, schedule: Q01DX001 (ip), vehicle: saline) was 100 % of control, the T/C (dose: 200.0 mg/kg/injection, schedule: Q01DX001 (ip), vehicle: saline) was 100 % of control and the T/C (dose: 400.0 mg/kg/injection, schedule: Q01DX001 (ip), vehicle: saline) was 101 % of control.
With C=CC(=NC(C)(C)C)Nc1c(Cl)cccc1Cl the T/C (dose: 0.79 mg/kg/injection, schedule: Q01DX009 (ip), vehicle: saline) was 100 % of control, the T/C (dose: 1.56 mg/kg/injection, schedule: Q01DX009 (ip), vehicle: saline) was 96 % of control and the T/C (dose: 3.12 mg/kg/injection, schedule: Q01DX009 (ip), vehicle: saline) was 108 % of control. The T/C (dose: 6.25 mg/kg/injection, schedule: Q01DX009 (ip), vehicle: saline with Tween-80) was 114 % of control, the T/C (dose: 12.5 mg/kg/injection, schedule: Q01DX009 (ip), vehicle: saline with Tween-80) was 119 % of control and the T/C [15] was 109 % of control. For the same molecule, the T/C [16] was 116 % of control.
In the case of COP(=S)(OC)SCc1cc(=O)n2c(C)cccc2n1, the T/C (dose: 6.25 mg/kg/injection, schedule: Q01DX005 (ip), vehicle: distilled water + alcohol) is reported as 102 % of control, the T/C (dose: 12.5 mg/kg/injection, schedule: Q01DX005 (ip), vehicle: distilled water + alcohol) is reported as 100 % of control and the T/C (dose: 25.0 mg/kg/injection, schedule: Q01DX005 (ip), vehicle: distilled water + alcohol) is reported as 102 % of control.
In the case of COC(=O)C1(C(=O)OC)N=C(C)OO1, the T/C (dose: 6.25 mg/kg/injection, schedule: Q01DX009 (ip), vehicle: saline) is reported as 99 % of control and 97 % of control, the T/C [15] is reported as 101 % of control and 107 % of control and the T/C [16] is reported as 91 % of control and 97 % of control. The T/C [17] was 96 % of control and 97 % of control and the T/C [18] was 101 % of control.
For COc1ccc2[s+]c(-c3ccccc3)ccc2c1, the T/C [6] was 100 % of control, the T/C [7] was 108 % of control and the T/C [8] was 111 % of control.
For CC(=O)N1C=Cc2ccccc2C1C1NC=Cc2ccccc21 (stereo not drawn), the T/C (dose: 50.0 mg/kg/injection, schedule: Q01DX005 (ip), vehicle: saline with Tween-80) was 96 % of control, the T/C (dose: 100.0 mg/kg/injection, schedule: Q01DX005 (ip), vehicle: saline with Tween-80) was 94 % of control and the T/C (dose: 200.0 mg/kg/injection, schedule: Q01DX005 (ip), vehicle: saline with Tween-80) was 88 % of control.
For CC1=CC=CN2CCC(=O)N=C12, the T/C [19] was 113 % of control, the T/C [20] was 101 % of control and the T/C [21] was 101 % of control.
O=C(C[n+]1ccccc1)NC(O)C(Cl)(Cl)Cl (stereo not drawn) was tested, and the T/C [19] was 106 % of control, the T/C [20] was 105 % of control and the T/C [21] was 109 % of control.
In the case of O=c1[nH]nc(-c2ccc(Br)cc2)s1, the T/C [3] is reported as 98 % of control, the T/C [22] is reported as 100 % of control and the T/C (dose: 400.0 mg/kg/injection, schedule: Q04DX003 (ip), vehicle: saline with Tween-80) is reported as 99 % of control.
In the case of CCSc1nc(N)c(C(=O)N2CCCCC2)s1, the T/C [10] is reported as 99 % of control, the T/C [12] is reported as 98 % of control and the T/C [14] is reported as 105 % of control.
O=C(O)/C=C/C(=O)Nc1ccc(N=Nc2ccccc2)cc1 was tested, and the T/C [2] was 104 % of control, the T/C [3] was 100 % of control and the T/C [22] was 90 % of control.
Cc1ccc(S(=O)(=O)Nc2nnc(NS(=O)(=O)c3ccc(C)cc3)nn2)cc1 was tested, and the T/C (dose: 12.5 mg/kg/injection, schedule: Q01DX009 (ip), vehicle: other) was 96 % of control, the T/C (dose: 25.0 mg/kg/injection, schedule: Q01DX009 (ip), vehicle: other) was 96 % of control and the T/C (dose: 50.0 mg/kg/injection, schedule: Q01DX009 (ip), vehicle: other) was 96 % of control. The T/C (dose: 100.0 mg/kg/injection, schedule: Q01DX009 (ip), vehicle: other) was 91 % of control and the T/C (dose: 200.0 mg/kg/injection, schedule: Q01DX009 (ip), vehicle: other) was 94 % of control.
CCC(Br)C1C/C=C\CC2OC(C=C=CBr)CC2O1 (stereo not drawn) was tested, and the T/C (dose: 3.12 mg/kg/injection, schedule: Q01DX005 (ip), vehicle: Klucel (hydroxypropylcellulose) (HPC)) was 100 % of control, the T/C (dose: 3.75 mg/kg/injection, schedule: Q01DX001 (ip), vehicle: Klucel (hydroxypropylcellulose) (HPC)) was 94 % of control and the T/C (dose: 6.25 mg/kg/injection, schedule: Q01DX005 (ip), vehicle: Klucel (hydroxypropylcellulose) (HPC)) was 95 % of control and 98 % of control. The T/C (dose: 7.5 mg/kg/injection, schedule: Q01DX001 (ip), vehicle: Klucel (hydroxypropylcellulose) (HPC)) was 90 % of control, the T/C (dose: 12.5 mg/kg/injection, schedule: Q01DX005 (ip), vehicle: Klucel (hydroxypropylcellulose) (HPC)) was 95 % of control and 104 % of control and the T/C (dose: 15.0 mg/kg/injection, schedule: Q01DX001 (ip), vehicle: Klucel (hydroxypropylcellulose) (HPC)) was 91 % of control. The T/C (dose: 25.0 mg/kg/injection, schedule: Q01DX005 (ip), vehicle: Klucel (hydroxypropylcellulose) (HPC)) was 91 % of control and 100 % of control, the T/C (dose: 30.0 mg/kg/injection, schedule: Q01DX001 (ip), vehicle: Klucel (hydroxypropylcellulose) (HPC)) was 91 % of control and the T/C [9] was 98 % of control. For the same molecule, the T/C [11] was 96 % of control.
With CC1(C)OC(=O)N(CO)C1=O the T/C [17] was 109 % of control, the T/C [18] was 119 % of control and the T/C (dose: 200.0 mg/kg/injection, schedule: Q01DX009 (ip), vehicle: saline) was 100 % of control.
For O=C(O)C1CSC2(CCCCC2)N1 (stereo not drawn), the T/C (dose: 50.0 mg/kg/injection, schedule: Q04DX003 (ip), vehicle: saline) was 104 % of control, the T/C (dose: 100.0 mg/kg/injection, schedule: Q04DX003 (ip), vehicle: saline) was 95 % of control and the T/C (dose: 200.0 mg/kg/injection, schedule: Q04DX003 (ip), vehicle: saline) was 99 % of control. For the same molecule, the T/C (dose: 400.0 mg/kg/injection, schedule: Q04DX003 (ip), vehicle: saline) was 96 % of control.
